Source: US7314747B1, “SMRT co-repressors, transcriptional co-repressors that interact with nuclear hormone receptors” (The Salk Institute for Biological Studies, priority 1995, dated 2008)

Assays:
[1] = molecular target: T1, EcR:USP complex with SMRTER ERID1/ERID2 (Drosophila melanogaster, UniProt P34021); experiment: In vitro GST pull-down of 35S-labeled EcR by GST-ERID1 / GST-ERID2; type: binding; settings: 3 μM, when USP is present
T1 construct: made in house; host or cells: EcR and USP: TNT (Promega) coupled transcription-translation; GST fusions: E. coli DH5
T1 sequence (P34021 1-878): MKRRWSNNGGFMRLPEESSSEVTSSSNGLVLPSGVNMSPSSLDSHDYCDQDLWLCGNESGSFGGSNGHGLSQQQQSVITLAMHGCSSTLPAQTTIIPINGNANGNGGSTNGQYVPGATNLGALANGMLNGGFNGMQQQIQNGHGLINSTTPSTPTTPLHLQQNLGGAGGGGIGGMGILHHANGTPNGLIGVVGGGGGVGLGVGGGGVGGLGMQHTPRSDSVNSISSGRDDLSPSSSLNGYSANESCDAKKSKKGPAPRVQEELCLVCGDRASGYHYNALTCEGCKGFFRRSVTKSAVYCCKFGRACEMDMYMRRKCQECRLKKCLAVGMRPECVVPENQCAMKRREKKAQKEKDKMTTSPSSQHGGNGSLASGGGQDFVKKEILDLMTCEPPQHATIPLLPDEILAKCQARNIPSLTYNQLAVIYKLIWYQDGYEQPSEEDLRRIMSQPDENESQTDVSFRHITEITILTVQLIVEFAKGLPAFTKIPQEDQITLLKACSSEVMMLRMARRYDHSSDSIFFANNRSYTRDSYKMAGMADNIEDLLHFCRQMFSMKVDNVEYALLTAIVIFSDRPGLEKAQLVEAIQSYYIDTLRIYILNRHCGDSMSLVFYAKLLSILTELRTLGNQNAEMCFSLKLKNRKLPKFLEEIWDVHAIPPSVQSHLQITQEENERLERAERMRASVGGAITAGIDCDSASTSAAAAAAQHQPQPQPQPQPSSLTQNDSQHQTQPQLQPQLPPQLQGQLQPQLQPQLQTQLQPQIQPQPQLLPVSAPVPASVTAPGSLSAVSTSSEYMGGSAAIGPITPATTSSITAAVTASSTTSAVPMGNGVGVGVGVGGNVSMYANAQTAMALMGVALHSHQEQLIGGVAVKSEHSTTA
T1 sequence (P20153 1-508 partner): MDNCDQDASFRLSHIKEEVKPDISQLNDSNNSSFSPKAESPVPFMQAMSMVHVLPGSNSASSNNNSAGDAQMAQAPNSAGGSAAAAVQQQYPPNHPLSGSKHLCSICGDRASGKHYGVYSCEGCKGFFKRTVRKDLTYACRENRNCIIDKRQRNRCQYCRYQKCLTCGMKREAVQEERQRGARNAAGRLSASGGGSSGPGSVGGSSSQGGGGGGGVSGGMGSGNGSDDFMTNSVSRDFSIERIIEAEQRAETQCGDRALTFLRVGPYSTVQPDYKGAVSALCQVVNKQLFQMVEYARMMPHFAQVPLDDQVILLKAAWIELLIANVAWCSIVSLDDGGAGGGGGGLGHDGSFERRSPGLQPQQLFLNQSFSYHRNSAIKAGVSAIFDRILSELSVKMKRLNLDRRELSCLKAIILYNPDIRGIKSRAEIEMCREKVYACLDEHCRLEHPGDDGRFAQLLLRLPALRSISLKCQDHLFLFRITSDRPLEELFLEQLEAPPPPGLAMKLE
Procedure: Glutathione S-transferase fusion proteins, including GST-X, GST-ERID1 (amino acids 1698-2063 of SEQ ID NO:1), and GST-ERID2 (amino acids 2951-3038 of SEQ ID NO:1), were expressed in E. coli DH5 cells, and extracts were affinity purified by binding to glutathione Sepharose 4B beads. Bound proteins used as affinity matrices in pull-down experiments were first equilibrated with the binding buffer (20 mM HEPES [pH 7.9], 150 mM NaCl, 1 mM EDTA, 4 mM MgCl2, 1 mM DTT, 0.06% NP40, 10% Glycerol, 0.25 mM PMSF, 1 mg BSA). For pull-down assays using GST-ERID1 (amino acids 1698-2063 of SEQ ID NO:1) and GST-ERID2 (amino acids 2951-3038 of SEQ ID NO:1), additional hsp27EcRE (0.05 μg/ml) was added to the binding buffer. In this experiment, […] of 50% GST-protein beads slurry, containing approximately 1 μg of proteins, were incubated with 10 μl of 35S-methionine-labeled proteins in 300 μl of the binding buffer (with or without 3 μM of MurA as indicated) for 30 min at room temperature. After the incubation, beads were washed three times with the binding buffer (with or without ligand) and resuspended in SDS-PAGE sample buffer before loading. After electrophoresis, bound radio-labeled proteins were visualized by autoradiography. […]

[2] = molecular target: T2, EcR interaction with E52 or SMRT (Drosophila melanogaster, UniProt P34021); experiment: Yeast two-hybrid assay, E52-EcR or SMRT-EcR interaction; type: cell-based; settings: 3 μM ligand
T2 construct: the region corresponding to amino acids 223-878 of EcRB1; expressed in transfected cells; host or cells: Y190 yeast cells
T2 sequence (P34021 223-878): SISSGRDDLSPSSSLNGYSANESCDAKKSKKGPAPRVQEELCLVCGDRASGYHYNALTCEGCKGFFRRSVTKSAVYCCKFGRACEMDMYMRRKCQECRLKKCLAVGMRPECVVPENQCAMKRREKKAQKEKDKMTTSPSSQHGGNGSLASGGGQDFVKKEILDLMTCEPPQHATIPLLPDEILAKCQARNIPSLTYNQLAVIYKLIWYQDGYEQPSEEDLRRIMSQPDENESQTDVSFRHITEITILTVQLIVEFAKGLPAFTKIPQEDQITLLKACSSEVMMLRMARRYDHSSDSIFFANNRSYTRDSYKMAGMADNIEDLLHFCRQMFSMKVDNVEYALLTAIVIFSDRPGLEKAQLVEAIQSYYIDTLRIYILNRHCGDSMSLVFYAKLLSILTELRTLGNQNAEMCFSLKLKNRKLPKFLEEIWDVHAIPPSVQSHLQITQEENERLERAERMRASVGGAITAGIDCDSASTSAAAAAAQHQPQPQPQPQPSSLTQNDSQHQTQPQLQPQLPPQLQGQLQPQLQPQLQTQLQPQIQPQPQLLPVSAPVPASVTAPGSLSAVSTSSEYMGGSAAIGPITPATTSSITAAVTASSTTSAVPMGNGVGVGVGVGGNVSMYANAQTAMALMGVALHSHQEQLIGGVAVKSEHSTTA
Procedure: Transformants were selected onto DO-Leu-Trp-His plates containing 40 mM 3-aminotriazole (Sigma) for 3-4 days. Surviving yeast colonies were picked as primary positives and restreaked on selection plates to isolate single clones. Activation domain plasmids were rescued from the selected positive transformants for further analysis. Each clone was evaluated by testing its potential interaction with several other nuclear receptors using the yeast two-hybrid assays. […] Quantitative liquid assay of β-galactosidase was performed on positive clones 16 hr after treating the yeast cells with no ligand, or with 3 μM ligand.

CC(C)CC[C@@H](O)[C@](C)(O)[C@H]1CC[C@@]2(O)C3=CC(=O)[C@]4(O)C[C@@H](O)[C@@H](O)C[C@]4(C)[C@H]3[C@H](O)C[C@]12C [Muristerone A]
effect of ligand on GST-ERID/EcR pull-down complex [1]: disrupted
dissociation of the interaction between E52 and EcR by ligand [2]: not dissociated
dissociation of the interaction between SMRT and EcR by ligand [2]: not dissociated
